In ChEMBL document CHEMBL6083231, “AANAT kinetics of CoASH-targeted electrophiles of tryptamine and related analogs” (Bioorg Med Chem Lett, 2024):

Legend:
[1] = target: T1, Serotonin N-acetyltransferase (Homo sapiens, UniProt Q16613); assay: Inhibition of AANAT (unknown origin)
[2] = target: T1, Serotonin N-acetyltransferase; assay: Inhibition of human AANAT

T1 sequence (Q16613 whole entry): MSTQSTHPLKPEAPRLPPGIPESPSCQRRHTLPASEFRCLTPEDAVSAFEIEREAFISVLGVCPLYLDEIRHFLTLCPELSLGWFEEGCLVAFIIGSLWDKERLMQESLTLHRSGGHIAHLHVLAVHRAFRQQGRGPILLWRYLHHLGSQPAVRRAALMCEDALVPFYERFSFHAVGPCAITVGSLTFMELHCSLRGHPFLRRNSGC

Row | IC50 [1] [µM] | IC50 [2] [µM] | Compound
1 | 0.5 |  | O=C(CBr)NCCc1c[nH]c2ccccc12
2 | 5.2 |  | O=C(CCl)NCCc1c[nH]c2ccccc12
3 |  | 25 | C=CC(=O)NCCc1csc2ccc(OC)cc12
